Test results: PubChem BioAssay (NCI)
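Compound exposure: 48 hours, 5 concentrations, 96-well plates. TGI: concentration producing complete growth inhibition.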

Columns and labels:
Assay in all cases: NCI-60 cell line screen, 48 h
TK-10 renal = system: TK-10 renal
HT29 colon = system: HT29 colon
MDA-MB-231 breast = system: MDA-MB-231 breast
SK-OV-3 ovarian = system: SK-OV-3 ovarian
SW-620 colon = system: SW-620 colon
UACC-62 melanoma = system: UACC-62 melanoma
EKVX NSCLC = system: EKVX NSCLC
SK-MEL-28 melanoma = system: SK-MEL-28 melanoma
NCI-H522 lung = system: NCI-H522 lung
SN12C renal = system: SN12C renal
ACHN renal = system: ACHN renal
OVCAR-4 ovarian = system: OVCAR-4 ovarian
MCF7 breast = system: MCF7 breast
LOX IMVI melanoma = system: LOX IMVI melanoma
786-0 renal = system: 786-0 renal
BT-549 breast = system: BT-549 breast
HOP-92 NSCLC = system: HOP-92 NSCLC
U251 CNS = system: U251 CNS
PC-3 prostate = system: PC-3 prostate
HL-60(TB) leukemia = system: HL-60(TB) leukemia
OVCAR-5 ovarian = system: OVCAR-5 ovarian
IGROV1 ovarian = system: IGROV1 ovarian
SNB-19 CNS = system: SNB-19 CNS
CAKI-1 renal = system: CAKI-1 renal
OVCAR-3 ovarian = system: OVCAR-3 ovarian
RPMI-8226 leukemia = system: RPMI-8226 leukemia
A498 renal = system: A498 renal
RXF 393 renal = system: RXF 393 renal
MALME-3M melanoma = system: MALME-3M melanoma
HCC-2998 colon = system: HCC-2998 colon
HCT-15 colon = system: HCT-15 colon
NCI-H23 lung = system: NCI-H23 lung
KM12 colon = system: KM12 colon
NCI-H226 lung = system: NCI-H226 lung
HS 578T breast = system: HS 578T breast
DU-145 prostate = system: DU-145 prostate
UO-31 renal = system: UO-31 renal
COLO 205 colon = system: COLO 205 colon
K-562 leukemia = system: K-562 leukemia
MOLT-4 leukemia = system: MOLT-4 leukemia
SK-MEL-2 melanoma = system: SK-MEL-2 melanoma
SK-MEL-5 melanoma = system: SK-MEL-5 melanoma
NCI-H460 lung = system: NCI-H460 lung
HOP-62 NSCLC = system: HOP-62 NSCLC
MDA-MB-435 = system: MDA-MB-435
SF-295 CNS = system: SF-295 CNS
SF-268 CNS = system: SF-268 CNS
SR leukemia = system: SR leukemia
UACC-257 melanoma = system: UACC-257 melanoma
HCT-116 colon = system: HCT-116 colon
CCRF-CEM leukemia = system: CCRF-CEM leukemia

With `CCOC(=O)c1nc2cc(C(F)(F)F)ccc2nc1Nc1ccc(C(=O)NC(C(=O)OCC)C(=O)OCC)cc1` the TGI (TK-10 renal) was 97.4 µM, the TGI (HT29 colon) was over 100 µM and the TGI (MDA-MB-231 breast) was 50.4 µM. For the same compound, the TGI (SK-OV-3 ovarian) was 42.1 µM, the TGI (SW-620 colon) was over 100 µM and the TGI (UACC-62 melanoma) was 27.6 µM. For the same compound, the TGI (EKVX NSCLC) was 66.2 µM, the TGI (SK-MEL-28 melanoma) was 69.2 µM and the TGI (NCI-H522 lung) was 40.3 µM. The TGI (SN12C renal) was 47.2 µM, the TGI (ACHN renal) was 63.1 µM and the TGI (OVCAR-4 ovarian) was 33.1 µM. It also gave a TGI (MCF7 breast) of 57.2 µM, a TGI (LOX IMVI melanoma) of over 100 µM and a TGI (786-0 renal) of 27.6 µM. For the same compound, the TGI (BT-549 breast) was 51.6 µM, the TGI (HOP-92 NSCLC) was 58.8 µM and the TGI (U251 CNS) was 32 µM. The TGI (PC-3 prostate) was over 100 µM, the TGI (HL-60(TB) leukemia) was over 100 µM and the TGI (OVCAR-5 ovarian) was over 100 µM. The TGI (IGROV1 ovarian) was 54.2 µM, the TGI (SNB-19 CNS) was 55.3 µM and the TGI (CAKI-1 renal) was 37 µM. The TGI (OVCAR-3 ovarian) was over 100 µM, the TGI (RPMI-8226 leukemia) was 65.8 µM and the TGI (A498 renal) was 50.3 µM. The TGI (RXF 393 renal) was 28.8 µM, the TGI (MALME-3M melanoma) was 40.3 µM and the TGI (HCC-2998 colon) was over 100 µM. It also gave a TGI (HCT-15 colon) of over 100 µM, a TGI (NCI-H23 lung) of over 100 µM and a TGI (KM12 colon) of over 100 µM. It also gave a TGI (NCI-H226 lung) of 34.8 µM, a TGI (HS 578T breast) of 37.5 µM and a TGI (DU-145 prostate) of over 100 µM. The TGI (UO-31 renal) was 91.9 µM, the TGI (COLO 205 colon) was over 100 µM and the TGI (K-562 leukemia) was over 100 µM. It also gave a TGI (MOLT-4 leukemia) of over 100 µM, a TGI (SK-MEL-2 melanoma) of over 100 µM and a TGI (SK-MEL-5 melanoma) of 54.2 µM. For the same compound, the TGI (NCI-H460 lung) was over 100 µM, the TGI (HOP-62 NSCLC) was 41 µM and the TGI (MDA-MB-435) was over 100 µM. It also gave a TGI (SF-295 CNS) of 30.8 µM, a TGI (SF-268 CNS) of 53.6 µM and a TGI (SR leukemia) of over 100 µM. It also gave a TGI (UACC-257 melanoma) of 51.9 µM, a TGI (HCT-116 colon) of 37.4 µM and a TGI (CCRF-CEM leukemia) of over 100 µM.
